Experimental data taken from ChEMBL document CHEMBL4765323, “Design, synthesis, and biological evaluation of novel miconazole analogues containing selenium as potent antifungal agents” (Eur J Med Chem, 2020).
≈ marks a conversion by molar mass, not a printed value. Calls of active or inactive are those of the source. The rule behind the calls is not given here.

Experiments:
[1] = test system: Candida albicans; test: Antifungal activity against Candida albicans CPCC400616 measured after 24 hrs by micro-broth dilution assay; format: functional
[2] = test system: Candida albicans; test: Antifungal activity against Candida albicans ATCC SC5314 measured after 24 hrs by micro-broth dilution assay; format: functional
[3] = test system: [Candida] zeylanoides; test: Antifungal activity against Candida zeylanoides CMGCC2.3739 measured after 24 hrs by micro-broth dilution assay; format: functional; settings: Dujonia zeylanoides
[4] = test system: Cryptococcus neoformans; test: Antifungal activity against Cryptococcus neoformans CGMCC2.3161 measured after 72 hrs by micro-broth dilution assay; format: functional
[5] = test system: Pichia kudriavzevii; test: Antifungal activity against Candida krusei AS 2.1045 measured after 24 hrs by micro-broth dilution assay; format: functional
[6] = test system: Nakaseomyces glabratus; test: Antifungal activity against clinical isolate Candida glabrata measured after 24 hrs by micro-broth dilution assay; format: functional
[7] = test system: Candida parapsilosis; test: Antifungal activity against Candida parapsilosis ATCC 22019 measured after 24 hrs by micro-broth dilution assay; format: functional; settings: Lodderomyces parapsilosis
[8] = test system: Aspergillus fumigatus; test: Antifungal activity against Aspergillus fumigatus CGMCC 3.7795 measured after 72 hrs by micro-broth dilution assay; format: functional
[9] = test system: Candida albicans; test: Antifungal activity against fluconazole-resistant Candida albicans CaR measured after 24 hrs by micro-broth dilution assay; format: functional
[10] = test system: Candida albicans; test: Antifungal activity against fluconazole-resistant Candida albicans 17 measured after 24 hrs by micro-broth dilution assay; format: functional
[11] = test system: Candida albicans; test: Antifungal activity against fluconazole-resistant Candida albicans 632 measured after 24 hrs by micro-broth dilution assay; format: functional
[12] = test system: Candida albicans; test: Antifungal activity against Candida albicans 901 measured after 24 hrs by micro-broth dilution assay; format: functional
[13] = test system: Candida albicans; test: Antifungal activity against fluconazole-resistant Candida albicans strain 904 measured after 24 hrs by micro-broth dilution assay; format: functional
[14] = test system: Candida albicans; test: Fungicidal activity against Candida albicans CPCC400616 measured after 48 hrs; format: functional
[15] = Ratio of MFC for fungicidal activity against Candida albicans CPCC400616 to MIC for Antifungal activity against Candida albicans CPCC400616; format: functional; settings: time 24 hrs
[16] = test system: Candida albicans; test: Antibiofilm activity against FCZ-Resistant Candida albicans CPCC400616 assessed as sessile minimum inhibitory concentration of biofilm formation at 50% after 1.5 hrs by XTT assay; format: functional
[17] = test system: Candida albicans; test: Antibiofilm activity against FCZ-Resistant Candida albicans CPCC400616 assessed as sessile minimum inhibitory concentration of biofilm formation at 50% after 3 hrs by XTT assay; format: functional
[18] = test system: Candida albicans; test: Antibiofilm activity against FCZ-Resistant Candida albicans CPCC400616 assessed as sessile minimum inhibitory concentration of biofilm formation at 50% after 6 hrs by XTT assay; format: functional
[19] = test system: Candida albicans; test: Antibiofilm activity against FCZ-Resistant Candida albicans CPCC400616 assessed as sessile minimum inhibitory concentration of biofilm formation at 50% after 24 hrs by XTT assay; format: functional
[20] = test system: Erythrocyte; test: Hemolytic activity in rabbit RBC assessed as hemolysis ratio at 1 ug/ml measured after 3 hrs relative to control; format: ADME, cell-based, Oryctolagus cuniculus; settings: dose 1 µg/ml
[21] = test system: Candida albicans; test: Antibiofilm activity against FCZ-Resistant Candida albicans CPCC400616 assessed as sessile minimum inhibitory concentration of biofilm formation at 80% after 1.5 hrs by XTT assay; format: functional
[22] = test system: Candida albicans; test: Antibiofilm activity against FCZ-Resistant Candida albicans CPCC400616 assessed as sessile minimum inhibitory concentration of biofilm formation at 80% after 3 hrs by XTT assay; format: functional
[23] = test system: Candida albicans; test: Antibiofilm activity against FCZ-Resistant Candida albicans CPCC400616 assessed as sessile minimum inhibitory concentration of biofilm formation at 80% after 6 hrs by XTT assay; format: functional
[24] = test system: Candida albicans; test: Antibiofilm activity against FCZ-Resistant Candida albicans CPCC400616 assessed as sessile minimum inhibitory concentration of biofilm formation at 80% after 24 hrs by XTT assay; format: functional
[25] = Ratio of hemolysis activity in rabbit RBC to MIC for Candida albicans; format: toxicity; settings: rabbit red blood cells (RBC)
[26] = test system: Candida albicans; test: Inhibition of CYP51 in azole-resistant Candida albicans ATCC […] assessed as ergosterol level at 0.03125 ug/ml incubated for 16 hrs by LC-MS analysis relative to control; design: scale not given: the % may be the effect or the level left; settings: dose 0.03125 µg/ml
[27] = test system: Candida albicans; test: Inhibition of CYP51 in azole-resistant Candida albicans ATCC […] assessed as ergosterol level at 0.125 ug/ml incubated for 16 hrs by LC-MS analysis relative to control; design: scale not given: the % may be the effect or the level left; settings: dose 0.125 µg/ml
[28] = test system: Candida albicans; test: Inhibition of CYP51 in azole-resistant Candida albicans ATCC […] assessed as ergosterol level at 0.5 ug/ml incubated for 16 hrs by LC-MS analysis relative to control; design: scale not given: the % may be the effect or the level left; settings: dose 0.5 µg/ml
[29] = test system: Candida albicans; test: Inhibition of CYP51 in azole-resistant Candida albicans ATCC […] assessed as ergosterol level at 2 ug/ml incubated for 16 hrs by LC-MS analysis relative to control; design: scale not given: the % may be the effect or the level left; settings: dose 2.0 µg/ml
[30] = test system: Candida albicans; test: Inhibition of CYP51 in azole-resistant Candida albicans ATCC […] assessed as Obtusifoliol level at 0.03125 ug/ml incubated for 16 hrs by LC-MS analysis relative to control; design: scale not given: the % may be the effect or the level left; settings: dose 0.03125 µg/ml
[31] = test system: Candida albicans; test: Inhibition of CYP51 in azole-resistant Candida albicans ATCC […] assessed as Obtusifoliol level at 0.125 ug/ml incubated for 16 hrs by LC-MS analysis relative to control; design: scale not given: the % may be the effect or the level left; settings: dose 0.125 µg/ml
[32] = test system: Candida albicans; test: Inhibition of CYP51 in azole-resistant Candida albicans ATCC […] assessed as Obtusifoliol level at 0.5 ug/ml incubated for 16 hrs by LC-MS analysis relative to control; design: scale not given: the % may be the effect or the level left; settings: dose 0.5 µg/ml
[33] = test system: Candida albicans; test: Inhibition of CYP51 in azole-resistant Candida albicans ATCC […] assessed as Obtusifoliol level at 2 ug/ml incubated for 16 hrs by LC-MS analysis relative to control; design: scale not given: the % may be the effect or the level left; settings: dose 2.0 µg/ml
[34] = test system: Candida albicans; test: Inhibition of CYP51 in azole-resistant Candida albicans ATCC […] assessed as Obtusifoliol level at 8 ug/ml incubated for 16 hrs by LC-MS analysis relative to control; design: scale not given: the % may be the effect or the level left; settings: dose 8.0 µg/ml
[35] = test system: Candida albicans; test: Inhibition of CYP51 in azole-resistant Candida albicans ATCC […] assessed as Lanosterol level at 0.03125 ug/ml incubated for 16 hrs by LC-MS analysis relative to control; design: scale not given: the % may be the effect or the level left; settings: dose 0.03125 µg/ml
[36] = test system: Candida albicans; test: Inhibition of CYP51 in azole-resistant Candida albicans ATCC […] assessed as Lanosterol level at 0.125 ug/ml incubated for 16 hrs by LC-MS analysis relative to control; design: scale not given: the % may be the effect or the level left; settings: dose 0.125 µg/ml
[37] = test system: Candida albicans; test: Inhibition of CYP51 in azole-resistant Candida albicans ATCC […] assessed as Lanosterol level at 0.5 ug/ml incubated for 16 hrs by LC-MS analysis relative to control; design: scale not given: the % may be the effect or the level left; settings: dose 0.5 µg/ml
[38] = test system: Candida albicans; test: Inhibition of CYP51 in azole-resistant Candida albicans ATCC […] assessed as Lanosterol level at 2 ug/ml incubated for 16 hrs by LC-MS analysis relative to control; design: scale not given: the % may be the effect or the level left; settings: dose 2.0 µg/ml
[39] = test system: Candida albicans; test: Inhibition of CYP51 in azole-resistant Candida albicans ATCC […] assessed as Lanosterol level at 8 ug/ml incubated for 16 hrs by LC-MS analysis relative to control; design: scale not given: the % may be the effect or the level left; settings: dose 8.0 µg/ml
[40] = test system: Candida albicans; test: Inhibition of CYP51 in azole-resistant Candida albicans ATCC […] assessed as Eburicol level at 0.03125 ug/ml incubated for 16 hrs by LC-MS analysis relative to control; design: scale not given: the % may be the effect or the level left; settings: dose 0.03125 µg/ml
[41] = test system: Candida albicans; test: Inhibition of CYP51 in azole-resistant Candida albicans ATCC […] assessed as Eburicol level at 0.125 ug/ml incubated for 16 hrs by LC-MS analysis relative to control; design: scale not given: the % may be the effect or the level left; settings: dose 0.125 µg/ml
[42] = test system: Candida albicans; test: Inhibition of CYP51 in azole-resistant Candida albicans ATCC […] assessed as Eburicol level at 0.5 ug/ml incubated for 16 hrs by LC-MS analysis relative to control; design: scale not given: the % may be the effect or the level left; settings: dose 0.5 µg/ml
[43] = test system: Candida albicans; test: Inhibition of CYP51 in azole-resistant Candida albicans ATCC […] assessed as Eburicol level at 2 ug/ml incubated for 16 hrs by LC-MS analysis relative to control; design: scale not given: the % may be the effect or the level left; settings: dose 2.0 µg/ml
[44] = test system: Candida albicans; test: Inhibition of CYP51 in azole-resistant Candida albicans ATCC […] assessed as Eburicol level at 8 ug/ml incubated for 16 hrs by LC-MS analysis relative to control; design: scale not given: the % may be the effect or the level left; settings: dose 8.0 µg/ml
[45] = test system: Candida albicans; test: Inhibition of CYP51 in azole-resistant Candida albicans ATCC […] assessed as inhibition of ergosterol biosynthesis by measuring ergosterol content at 8 ug/ml incubated for 16 hrs by LC-MS analysis relative to control; design: scale not given: the % may be the effect or the level left; settings: dose 8.0 µg/ml
[46] = test system: Candida albicans; test: Fungicidal activity against Candida albicans CPCC400616 at MIC to 8 times MIC measured after 24 hrs by time-kill curve assay; format: functional
[47] = test system: Candida albicans; test: Fungicidal activity against Candida albicans CPCC400616 at 8 times MIC measured after 4 hrs by time-kill curve assay; format: functional, organism-based

Fc1ccc(Br)c(C[Se]C(Cn2ccnc2)c2ccc(Cl)cc2Cl)c1 (configuration not stated)
MIC [1]: 0.02 µg/mL (≈ 0.0394 µM) | MIC [2]: 0.01 µg/mL (≈ 0.0197 µM) | MIC [3]: 0.5 µg/mL (≈ 0.986 µM) | MIC [4]: 0.25 µg/mL (≈ 0.493 µM) | MIC [5]: 0.13 µg/mL (≈ 0.256 µM) | MIC [6]: 0.5 µg/mL (≈ 0.986 µM) | MIC [7]: 0.02 µg/mL (≈ 0.0394 µM) | MIC [8]: 0.5 µg/mL (≈ 0.986 µM) | MIC [9]: 0.13 µg/mL (≈ 0.256 µM) | MIC [10]: 0.03 µg/mL (≈ 0.0592 µM) | MIC [11]: 0.13 µg/mL (≈ 0.256 µM) | MIC [12]: 0.25 µg/mL (≈ 0.493 µM) | MIC [13]: 0.13 µg/mL (≈ 0.256 µM) | MIC [14]: 0.0625 µg/mL (≈ 0.123 µM) | MFC/MIC ratio [15]: 4 | Activity [16]: 1 µg/mL | Activity [17]: 8 µg/mL | Activity [18]: 8 µg/mL | Activity [19]: 128 µg/mL | Activity [20]: 0.49 µg/mL | Activity [21]: 8 µg/mL | Activity [22]: 64 µg/mL | Activity [23]: >128 µg/mL | Activity [24]: >128 µg/mL | selectivity ratio [25]: 256

Clc1ccc(C(Cn2ccnc2)[Se]Cc2ccccc2Cl)c(Cl)c1 (configuration not stated)
MIC [1]: 0.02 µg/mL (≈ 0.045 µM) | MIC [2]: 0.01 µg/mL (≈ 0.0225 µM) | MIC [3]: 1 µg/mL (≈ 2.25 µM) | MIC [4]: 0.25 µg/mL (≈ 0.562 µM) | MIC [5]: 0.13 µg/mL (≈ 0.292 µM) | MIC [6]: 0.5 µg/mL (≈ 1.12 µM) | MIC [7]: 0.13 µg/mL (≈ 0.292 µM) | MIC [8]: 2 µg/mL (≈ 4.5 µM) | MIC [9]: 0.06 µg/mL (≈ 0.135 µM) | MIC [10]: 0.13 µg/mL (≈ 0.292 µM) | MIC [11]: 1 µg/mL (≈ 2.25 µM) | MIC [12]: 0.5 µg/mL (≈ 1.12 µM) | MIC [13]: 0.25 µg/mL (≈ 0.562 µM) | MIC [14]: 0.125 µg/mL (≈ 0.281 µM) | MFC/MIC ratio [15]: 8 | Activity [26]: 86.4% | Activity [27]: 80.3% | Activity [28]: 78.9% | Activity [29]: 19.8% | Activity [16]: 4 µg/mL | Activity [17]: 16 µg/mL | Activity [18]: 128 µg/mL | Activity [19]: >128 µg/mL | Activity [20]: 0 µg/mL | Activity [21]: 8 µg/mL | Activity [22]: 64 µg/mL | Activity [23]: >128 µg/mL | Activity [24]: >128 µg/mL | selectivity ratio [25]: 256 | Activity [30]: 1% | Activity [31]: 9.5% | Activity [32]: 17.4% | Activity [33]: 7.8% | Activity [34]: 8.1% | Activity [35]: 0% | Activity [36]: 11.6% | Activity [37]: 10% | Activity [38]: 13.6% | Activity [39]: 12.4% | Activity [40]: 7.4% | Activity [41]: 5.3% | Activity [42]: 70.3% | Activity [43]: 75.1% | Activity [44]: 64.6% | Activity [45]: 77.7% | Activity [46]: >3 log10CFU/ml | Activity [47]: Active
